Literature values in patent US20030072802A1, “Sustained release topiramate” (R.T. Alamo Ventures, Inc., priority 2001, published 2003).

What was measured:
[1] = tested on: kainate/AMPA subtype of excitatory amino acid (glutamate) receptor
[2] = formulations currently in use; after a 200 mg dose
[3] = tested on: state-dependent sodium channel (cultured neurons)

SMILES: CC1(C)OC2COC3(COS(N)(=O)=O)OC(C)(C)OC3C2O1 [topiramate, 2,3:4,5-bis-Q-(1-methylethylidene)-p-D-fructopyranose sulfamate]
- effect on the ability of kainate to activate the kainate/AMPA receptor [1]: antagonizes the ability of kainate to activate
- half life of plasma concentration [2]: about 21 hours
- time of peak topiramate plasma concentration [2]: about 2 hours
- effect on action potentials elicited repetitively by sustained depolarization [3]: blocked by topiramate in a time-dependent manner
- effect on the activity of NMDA at the NMDA receptor subtype (NMDA receptor subtype): no apparent effect
- effect on GABA-induced flux of chloride ions into neurons (GABAA receptors): enhances the ability of GABA to induce a flux of chloride ions into neurons
- effect on the duration of the channel open time (GABAA receptors): nor did topiramate increase the duration of the channel open time
- effect on the frequency at which GABA activates GABAA receptors (GABAA receptors): increases the frequency
- sensitivity of the GABA-potentiating effect to flumazenil (benzodiazepine antagonist) (GABAA receptors): not blocked by flumazenil
